# Results as given in patent US20210269479A1, “USE OF CY[…] FOR TREATING CANCER” (Hepion Pharmaceuticals, Inc., priority 2020, published 2021).
# Entries after “also recorded” stand apart in the source; their conditions may differ.
# Columns and labels:
# [1] = test system: liver tumors (likely hepatocellular carcinoma); assay: Liver tumor burden in streptozotocin/high-fat diet NASH mice; assay type: in vivo, C57BL/6J male mice
# Experimental: NASH was initiated in 2-day-old C57BL/6J male mice by intraperitoneal injection with […] streptozotocin (S0130; Sigma-Aldrich) to disrupt pancreatic β cells, induce diabetes, and promote adiposity in the liver. Mice were weaned at 3 weeks of age and begun on a high-fat diet with 60% kcal fat (D12492N; Research Diets) for the duration of the studies. Additionally, mice with a regular diet (D12450KN; Research Diets) and without streptozotocin were included as negative controls. CRV431 was dissolved in a self-microemulsifying drug vehicle and then diluted with PBS and administered daily by oral gavage at 50 mg/kg per day. The start time and duration of vehicle and CRV431 treatments varied depending on the study.
# In two separate experiments, tumor burden at the end of treatment was assessed by the number of tumors (FIGS. 11A and 12A) and a composite score based on the number and size of tumors (0-7 scale; FIGS. 11B and 12B).
# [2] = test system: human precision cut liver slices (PCLS); assay: Gene expression in PCLS by RT-PCR; assay type: cell-based; settings: collagen1α1, αSMA, TIMP1, IL-6, MCP-1
# Experimental: (§1) PCLS were obtained from 5 human donors who underwent resection of liver cancer. Replicate slices were collected from healthy margins of the resections and cultured for 4 or 6 days depending on the experimental protocol. In the Nonstimulation Protocol slices were cultured for 6 days and treated for the entire period with DMSO vehicle or 5 μM CRV431. In the Stimulation Protocol slices were rested for 1 day and then administered the cytokines, TGFβ and PDGF-BB, for 3 days to stimulate inflammation and fibrosis. DMSO vehicle, CRV431 (1 and 5 μM), Alk5i (10 μM), obeticholic acid (5 μM), elafibranor (5 μM), resmetirom (5 μM), and Aramchol (5 μM) were administered individually as drug treatments in the Stimulation Protocol concurrent with TGFβ+PDGF-BB. Culture medium treatments were replaced daily.
# (c) Gene expression by RT-PCR. RNA was isolated from duplicate liver slices per treatment at the end of the experiments and evaluated by RT-PCR for 5 markers of inflammation and fibrosis: MCP-1, IL-6, TIMP1, αSMA, and collagen 1α1. β actin was used as a reference gene to calculate relative levels of each target gene RNA. […] Results are shown in FIG. 1C (gene expression by RT-PCR).
# [3] = test system: human precision cut liver slices (PCLS); assay: Biomarker secretion from PCLS into culture medium (ELISA); assay type: cell-based; settings: collagen1α1, fibronectin, hyaluronic acid, IL-6, MCP-1
# Experimental: as §1
# (a) Biomarker secretion. Spent culture medium was collected daily from duplicate slices for each treatment. ELISAs were used to quantify secretion of monocyte chemoattractant protein (MCP-1), interleukin-6 (IL-6), tissue inhibitor of metalloproteinase-1 (TIMP1), hyaluronic acid, fibronectin, and collagen 1α1. For each donor the mean level of biomarker secretion in each treatment group was expressed as a percentage change relative to DMSO vehicle, the percentages averaged for all donors, and finally the mean daily percentage change calculated from all days of evaluation. […]
# [4] = test system: human precision cut liver slices (PCLS); assay: Sirius red histological staining of PCLS (tissue fibrosis); assay type: cell-based
# Experimental: as §1
# (b) Sirius red histological staining. […] Sirius red was quantified morphometrically in the histological sections as the percentage area with Sirius red staining in 10 sections from each treatment. In the Nonstimulation Protocol the quantity of Sirius red staining was expressed relative to the vehicle group. In the Stimulation Protocol the quantity of Sirius red staining was expressed relative to nonstimulated PCLS (0%) and TGFβ+PDGF-BB-stimulated+vehicle PCLS (100%). Results are shown in FIG. 1B (Sirius red staining for tissue fibrosis).
# [5] = test system: fibroblastic cells (IPF lung fibroblasts, cardiac fibroblasts, dermal fibroblasts, renal mesangial cells, LX2 hepatic stellate cell line); assay: Procollagen and fibronectin (ECM) secretion from fibroblastic cells, ELISA; assay type: cell-based
# From the text: For example, as described herein, CRV431 can regulate oncogenes, and have anti-oncogenic activities. CRV431 can decrease production of the extracellular matrix (ECM) molecules, collagen and fibronectin, from fibroblastic cells derived from five cell types, including lung fibroblasts from a patient with idiopathic pulmonary fibrosis (“IPF”), cardiac fibroblasts, dermal (skin) fibroblasts, renal mesangial cells, and the LX2 hepatic stellate cell line. It is known that IPF is an aggressive fibrotic disease in tremendous need of new treatments. […] The extent of inhibition was similar whether or not the cells were stimulated with the profibrotic agent, transforming growth factor-beta (TGFβ), consistent with direct effects on ECM synthesis.
# [6] = test system: HepG2 hepatocellular carcinoma cells; settings: 4 days, strongest with 0.37 μM daunorubicin and CRV431 0.25-4 μM
# Experimental: (§2) HepG2 hepatocellular carcinoma cell lines and Huh7 hepatocellular carcinoma cell lines were plated in 96 well plates at subconfluent densities. The chemotherapy compound, daunorubicin, and CRV431 were applied alone or in combination at the indicated concentrations in duplicate wells for each treatment. After 4 days incubation, cell viability was assessed with Cell Titer Glo 2.0.
# [7] = test system: Huh7 hepatocellular carcinoma cells; settings: 4 days, strongest with 0.37 μM daunorubicin and CRV431 1-4 μM
# Experimental: as §2
# [8] = 50 mg/kg per day oral gavage, weeks 20 to 30
smiles,measurement,setting,value
CC[C@@H]1NC(=O)[C@H]([C@H](O)[C@H](C)CCCCCCNC(C)=O)N(C)C(=O)[C@H](C(C)C)N(C)C(=O)[C@H](CC(C)C)N(C)C(=O)[C@H](CC(C)C)N(C)C(=O)[C@@H](C)NC(=O)[C@H](C)NC(=O)[C@H](CC(C)C)N(C)C(=O)[C@H](C(C)C)NC(=O)[C@H](CC(C)C)N(C)C(=O)[C@@H](C)N(C)C1=O [CRV431],decrease of tumor burden (score combining tumor number and size),[1]; [8],52%
same,livers lacking tumors,[1]; [8],2 of 10
same,number of liver tumors vs vehicle,[1]; [8],half the number of tumors
same,tumor size vs vehicle,[1]; [8],smaller tumors on average
same,"Tumor number, mean","[1]; 50 mg/kg/day, end of treatment",4.80
same,"Tumor score, mean (0-7 scale)","[1]; 50 mg/kg/day, end of treatment",2.40
same,RNA levels of inflammation and fibrosis markers by qRT-PCR,[2],"reductions in RNA levels of collagen1α1, αSMA, TIMP1, IL-6, and MCP-1; also recorded: decreased the mean daily secretion and gene expression of all markers"
same,secretion of inflammation and fibrosis biomarkers,[3],"reduced secretion of collagen1α1, fibronectin, hyaluronic acid, IL-6, and MCP-1; also recorded: decreased the mean daily secretion and gene expression of all markers"
same,tissue fibrosis vs vehicle-treated slices,"[4]; 6 days of culture, absence of exogenous TGFβ+PDGF-BB",less fibrosis than vehicle-treated slices
same,prevention of TGFβ+PDGF-BB-induced tissue fibrosis,"[4]; Stimulation Protocol, compared with other NASH drug candidates",most effective of five NASH drug candidates
same,procollagen and fibronectin secretion,"[5]; ELISA, with or without TGFβ stimulation",dose-dependently decreased procollagen and fibronectin secretion from all cell types
same,cell viability,[5]; clinically relevant concentrations,without causing any reduction in cell viability
same,decrease of ECM production,"[5]; clinically relevant concentrations, collagen and fibronectin",up to 55%
same,effect on cytotoxicity of daunorubicin,[6],increased the cytotoxicity of daunorubicin
same,effect on cytotoxicity of daunorubicin,[7],increased the cytotoxicity of daunorubicin
